Assay results from the NIST ThermoML archive (doi:10.1016/j.fluid.2010.01.007).
± gives the expanded uncertainty stated by the source.

Assay: activity coefficient (dimensionless); of the first substance listed, at infinite dilution; xn = mol fraction of the nth substance listed
Settings: Liquid, Chromatography, x1 = 0

Structure (SMILES)	activity coefficient (325.2 K)	activity coefficient (334.8 K)	activity coefficient (344.3 K)	activity coefficient (353.9 K)	activity coefficient (363.4 K)
CCCCC1CO1 (stereo unspecified) [1,2-epoxyhexane] + CCCCn1cc[n+](C)c1.F[B-](F)(F)F	5.7 ± 0.2	5.31 ± 0.19	5.3 ± 0.19	5.14 ± 0.18	5.2 ± 0.18
CCCCC1CO1 (stereo unspecified) [1,2-epoxyhexane] + CCCCn1cc[n+](C)c1.F[P-](F)(F)(F)(F)F	–	1.94 ± 0.07	2.19 ± 0.08	2.2 ± 0.08	2.14 ± 0.08
CC1(C)CO1 [2,2-dimethyloxirane] + CCCCn1cc[n+](C)c1.F[B-](F)(F)F	2.19 ± 0.08	2.13 ± 0.07	2.11 ± 0.07	2.06 ± 0.07	2.18 ± 0.08
CC1(C)CO1 [2,2-dimethyloxirane] + CCCCn1cc[n+](C)c1.F[P-](F)(F)(F)(F)F	–	1.09 ± 0.03	1.12 ± 0.03	1.21 ± 0.03	1.19 ± 0.04
CCC1CO1 (stereo unspecified) [ethyloxirane] + CCCCn1cc[n+](C)c1.F[B-](F)(F)F	2.62 ± 0.09	2.14 ± 0.08	2.08 ± 0.07	2.05 ± 0.07	2.1 ± 0.07
CCC1CO1 (stereo unspecified) [ethyloxirane] + CCCCn1cc[n+](C)c1.F[P-](F)(F)(F)(F)F	–	1.13 ± 0.03	1.13 ± 0.03	1.19 ± 0.03	1.16 ± 0.03
CC1CO1 (stereo unspecified) [methyloxirane] + CCCCn1cc[n+](C)c1.F[B-](F)(F)F	1.35 ± 0.04	1.33 ± 0.04	1.27 ± 0.03	1.32 ± 0.04	1.41 ± 0.04
CC1CO1 (stereo unspecified) [methyloxirane] + CCCCn1cc[n+](C)c1.F[P-](F)(F)(F)(F)F	–	0.838 ± 0.021	0.828 ± 0.021	0.893 ± 0.021	0.872 ± 0.024
